Laboratory results from article PMC11211441, “Distributable, metabolic PET reporting of tuberculosis” (Nature Communications, 2024).

Columns and labels:
[1] = tested on: mammalian (porcine) trehalase; test: Trehalase degradation assay; type: in vitro ADME; conditions: 0.3 units/mL trehalase, 10 mM substrate
Protocol: The metabolic stabilities of the remaining three analogs, [^18F]FDT, 4-epi-[^18F]FDT and 6-[^18F]FDT were tested. Although, human trehalose-degrading trehalase activity is low and restricted primarily to the brush-border of the kidney where it is thought to be GPI-anchored[28],[32], it can be elevated in some diseases, therefore we also tested degradation of the analogs in vitro using high concentrations of mammalian (porcine) trehalase (0.3 units/mL, 10 mM substrate, Fig. S5). […]
Figure S5. Trehalase Assays.
Substrates were prepared to a final concentration of 10 mM in 0.05 M citric acid, pH 5.7 including trehalase stock solution (0.3 units/mL). The reaction mixture was incubated at 37 °C for 60 minutes, and then quenched with an equal volume of 0.1 M Tris, pH 7.5. Released glucose was measured with glucose assay kit (see Methods).

[2] = [19F]FDT clearance and in vivo stability in marmosets (plasma LC-MS, 19F NMR); set-up: species or system common marmosets; conditions: marmosets (n = 3), LC-MS and 19F-NMR
Protocol: In order to determine [^19F]FDT metabolism in vivo, we assessed concentration vs time in two mammalian species: common marmosets and C57BL/6 mice. For marmosets weighing between 290.3–340.3 g, 20 mg of sterile-filtered FDT in PBS was injected IV (n = 3) and ~200 μL blood samples were taken from the femoral vein at 0 min, 5 min, 30 min, 60 min, 90 min and 180 min post injection. Samples were spun (4000 rcf for 10 mins at room temp) to separate red cell mass from plasma. Plasma portion was separated and stored at −80 °C for further analysis. Similarly, mice weighing from 18.7–20.5 g were injected (n = 5) with 5 mg of filter-sterilized FDT solution dissolved in PBS solution, pH 7.4. Mandibular blood samples were taken at 2 min, 15 min, 30 min and 45 min post injection. For the last sample in each mouse, the animal was bled out to get maximum sample for NMR analysis. Final urine samples were collected in 3 out of 5 mice through free catch. Blood samples were centrifuged (6500 rcf for 4 mins at room temp) to separate red cell mass from plasma, and plasma was separated and stored at −80 °C prior to analyzes.
Plasma samples from −80 °C were thawed on ice and mixed with 80% acetonitrile to precipitate plasma proteins and other biomolecules. Samples were centrifuged at 10,000 g, 4 °C for 10 min.
Figure S37. [19F]FDT Clearance and In Vivo Stability in Non-human Primates […]
A, B) 20 mg [19F]FDT was injected into marmosets (A, n=3 biological replicates, each measured in duplicate) and 5 mg FDT injected into mice (B, n=5 biological replicates, each measured in triplicate). […]
marmosets (A) and mice (B).
[19F]FDG was detected, consistent with the only low levels of metabolism seen with [18F]FDT in rabbits (see Figure S3G). C-F) We further analyzed the potential degradation of FDT into FDG by 19F NMR spectroscopy in marmoset plasma (C) sample from 5 min time point, mouse plasma (D) sample from 30 min time point and mouse urine samples from 30 min (E) and 45 min (F) time points, respectively. In all these samples only [19F]FDT was observed (d -201.2). The data points are average values from three replicates with error bars ± SD.
(1 picture or pasted object on this page, not shown here)

[3] = Detection/stability of [19F]FDT in human plasma; type: in vitro ADME; conditions: spiked human plasma, LC-MS
Protocol: FDT standards were prepared in human plasma (Sigma Aldrich), whereby 20 μL plasma samples were spiked with various known concentrations of [^19F]FDT i.e. 10 μM, 20 μM, 40 μM, 120 μM, 160 μM, and 300 μM in 1.5 ml Eppendorf tube and diluted with up to 50% acetonitrile solution. Samples were vortexed for 1 min and centrifuged at 13000 rpm (15871 x g) for 10 min and supernatant was analyzed directly by LC-MS using LC method 2.
Figure S35. Detection of [19F]FDT for Assessment of Stability in Human Plasma
A) Experimental set-up of the sample preparation. Commercially available human plasma samples were spiked with known concentrations of [19F] FDT, plasma proteins were then precipitated by adding up to 50% of MeCN solution and after centrifugation the samples were analysed by LC-MS. Panel A created with BioRender.com, released under a Creative Commons Attribution-NonCommercial-NoDerivs 4.0 International license. B) [19F]FDT standard sample analysed by LC-MS method 2 with the retention time of 6.5 min. C) LC-MS analysis of plasma sample spiked with known amount of FDT showing the similar retention […]
efficient detection. D) Calibration curve of plasma samples when spiked with FDT concentrations from 10 µM – 300 µM with r2 = 0.998 and E) Further calibration curve showing instrument sensitivity down to > 390 nM for detection of FDT ( r2 = 0.998 ). […]

[4] = Human microsomal stability assay; conditions: human liver microsomes, 3 µM, 80 min
Protocol: Microsomal stability assay was carried out as described previously. In brief, 10 x reduced nicotinamide adenine dinucleotide phosphate (NADPH)-regenerating system was freshly prepared by dissolving 37.2 mg glucose-6-phosphate (Sigma) in 1 mL of 100 mM potassium phosphate buffer, 39.8 mg nicotinamide adenine dinucleotide phosphate (NADP, Sigma) in 1 mL of potassium phosphate buffer, 11.5 U glucose-6-phosphate dehydrogenase (Thermo) in 1 mL of potassium phosphate buffer and 26.8 mg MgCl2.6H2O (Sigma) in 1 mL of distilled water. All these solutions were combined and kept on ice. […] After 5 min, 18 µL of NADPH-regenerating system was added to initiate reaction. Immediately after adding the NADPH regenerating system, 50 µL, 0 min time point sample was taken and quenched with equal volume of ice-cold methanol. Similarly further samples were taken at 10 min, 30 min, 60 min, 90 min and 120 min. Samples were centrifuged at 10,000 g at 4 °C for 10 min. […] After incubating the reaction mix at 37 °C for 5 min, 36 µL of NADPH regenerating system was added to initiate the reaction. 50 µL samples were taken at 0 min, 2.5 min, 5 min, 10 min, 20 min, 40 min and 80 min and reactions were quenched by adding equal amount of ice-cold acetonitrile and kept on ice.

[5] = Single and repeat iv dose toxicity study in rats; type: in vivo, Sprague Dawley rats
Protocol: For toxicity studies, 2 g of [^19F]-FDT was synthesized and tested for quality control as described above and in Figs.39 and shipped to a contract research organization. Toxicity studies were conducted by SRI International, Biosciences Division, Menlo Park, CA, USA in rats and dogs. The experimental design is described in Tables S10, S11, respectively.

SMILES: OC[C@H]1O[C@H](O[C@H]2O[C@H](CO)[C@@H](O)[C@H](O)[C@H]2F)[C@H](O)[C@@H](O)[C@@H]1O [[^19F]FDT]
- degradation by trehalase [1]: little or no degradation
- degradation by trehalase (Figure S5, released glucose) ([1]; pH 5.7, 37 °C, 60 minutes): 0
- degradation in plasma / in vivo [2]: no detectable degradation
- degradation in plasma / in vivo ([2]; listed as [19F]FDT): no degradation
- stability in human plasma [3]: no immediate degradation or apparent sequestration
- % remaining [4]: > 50%
- maximum tolerated dose (MTD) ([5]; Sprague Dawley rats, IV): not reached
- adverse findings in any parameters measured ([5]; rats, 100 x or 1000 x expected human dose iv): no adverse findings
